Laboratory results as given in PubChem BioAssay (NCI).
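How tested: cells in 96-well plates exposed to compound for 48 hours at five concentrations. At the GI50, growth is halved. At the TGI there is no net growth.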

Columns and labels:
Assay in all cases: NCI anticancer screen, dose series, 48 h
[1] = tested on: SF-268 CNS
[2] = tested on: SK-MEL-5 melanoma
[3] = tested on: OVCAR-5 ovarian
[4] = tested on: HCT-15 colon
[5] = tested on: CAKI-1 renal
[6] = tested on: SNB-75 CNS
[7] = tested on: DU-145 prostate
[8] = tested on: UO-31 renal
[9] = tested on: IGROV1 ovarian
[10] = tested on: NCI-H23 lung
[11] = tested on: SNB-19 CNS
[12] = tested on: MALME-3M melanoma
[13] = tested on: MCF7 breast
[14] = tested on: SK-MEL-2 melanoma
[15] = tested on: HCC-2998 colon
[16] = tested on: SK-OV-3 ovarian
[17] = tested on: COLO 205 colon
[18] = tested on: PC-3 prostate
[19] = tested on: 786-0 renal
[20] = tested on: NCI/ADR-RES ovarian
[21] = tested on: MDA-MB-231 breast
[22] = tested on: CCRF-CEM leukemia
[23] = tested on: HCT-116 colon
[24] = tested on: U251 CNS
[25] = tested on: NCI-H226 lung
[26] = tested on: OVCAR-8 ovarian
[27] = tested on: SF-295 CNS
[28] = tested on: EKVX NSCLC
[29] = tested on: MOLT-4 leukemia
[30] = tested on: SW-620 colon
[31] = tested on: A498 renal
[32] = tested on: HOP-62 NSCLC
[33] = tested on: A549 NSCLC
[34] = tested on: SN12C renal
[35] = tested on: OVCAR-3 ovarian
[36] = tested on: BT-549 breast
[37] = tested on: ACHN renal
[38] = tested on: HT29 colon
[39] = tested on: OVCAR-4 ovarian
[40] = tested on: SK-MEL-28 melanoma
[41] = tested on: LOX IMVI melanoma
[42] = tested on: TK-10 renal
[43] = tested on: UACC-257 melanoma
[44] = tested on: NCI-H522 lung
[45] = tested on: NCI-H460 lung
[46] = tested on: HOP-92 NSCLC
[47] = tested on: MDA-MB-435
[48] = tested on: M14 melanoma
[49] = tested on: SF-539 CNS
[50] = tested on: HL-60(TB) leukemia
[51] = tested on: KM12 colon
[52] = tested on: K-562 leukemia
[53] = tested on: RXF 393 renal
[54] = tested on: SR leukemia
[55] = tested on: HS 578T breast
[56] = tested on: RPMI-8226 leukemia
[57] = tested on: T-47D breast
[58] = tested on: UACC-62 melanoma

## c1ccc(-c2nnc(CCCCCCCCc3nnc(-c4ccccc4)o3)o2)cc1
[1]
  TGI: > 100 µM
[2]
  TGI: > 100 µM
[3]
  TGI: > 100 µM
[4]
  TGI: > 100 µM
[5]
  TGI: > 100 µM
[6]
  TGI: > 100 µM
[7]
  TGI: > 100 µM
[8]
  TGI: > 100 µM
[9]
  TGI: > 100 µM
[10]
  TGI: > 100 µM
[11]
  TGI: > 100 µM
[12]
  TGI: > 100 µM
[13]
  TGI: > 100 µM
[14]
  TGI: > 100 µM
[15]
  TGI: 91.6 µM
[16]
  TGI: > 100 µM
[17]
  TGI: > 100 µM
[18]
  TGI: > 100 µM
[19]
  TGI: > 100 µM
[20]
  TGI: > 100 µM
[21]
  TGI: > 100 µM
[22]
  TGI: > 100 µM
[23]
  TGI: > 100 µM
[24]
  TGI: > 100 µM
[25]
  TGI: > 100 µM
[26]
  TGI: > 100 µM
[27]
  TGI: > 100 µM
[28]
  TGI: > 100 µM
[29]
  TGI: > 100 µM
[30]
  TGI: > 100 µM
[31]
  TGI: > 100 µM
[32]
  TGI: > 100 µM
[33]
  TGI: > 100 µM
[34]
  TGI: > 100 µM
[35]
  TGI: > 100 µM
[36]
  TGI: > 100 µM
[37]
  TGI: > 100 µM
[38]
  TGI: > 100 µM
[39]
  TGI: > 100 µM
[40]
  TGI: > 100 µM
[41]
  TGI: > 100 µM
[42]
  TGI: > 100 µM
[43]
  TGI: > 100 µM
[44]
  TGI: 61 µM
[45]
  TGI: > 100 µM
[46]
  TGI: > 100 µM
[47]
  TGI: > 100 µM
[48]
  TGI: > 100 µM
[49]
  TGI: > 100 µM
[50]
  TGI: > 100 µM
[51]
  TGI: > 100 µM
[52]
  TGI: > 100 µM

## COc1cc(/C=C2\C(=O)Nc3ccccc32)cc(OC)c1O
[1]
  GI50: 4.24 µM
  TGI: 29.1 µM
[2]
  GI50: 2.87 µM
  TGI: 10.8 µM
[3]
  GI50: 4.71 µM
  TGI: 18.8 µM
[4]
  GI50: 3.16 µM
  TGI: 15.1 µM
[5]
  GI50: 2.93 µM
  TGI: 25.3 µM
[6]
  GI50: 1.17 µM
  TGI: 8.44 µM
[53]
  GI50: 2.52 µM
  TGI: 8.41 µM
[7]
  GI50: 5.35 µM
  TGI: 46.4 µM
[8]
  GI50: 2.63 µM
  TGI: 19.9 µM
[9]
  GI50: 3.72 µM
  TGI: 20.4 µM
[54]
  GI50: 1.6 µM
  TGI: 16.9 µM
[10]
  GI50: 4.97 µM
  TGI: 34.2 µM
[11]
  GI50: 4.45 µM
  TGI: 55.6 µM
[12]
  GI50: 2.98 µM
  TGI: 21.8 µM
[55]
  GI50: 1.77 µM
  TGI: 6.11 µM
[13]
  GI50: 0.728 µM
  TGI: 15 µM
[15]
  GI50: 11.9 µM
  TGI: 24.5 µM
[56]
  GI50: 5.47 µM
  TGI: 27.5 µM
[16]
  GI50: 3.88 µM
  TGI: 21.6 µM
[17]
  GI50: 12.3 µM
  TGI: 26.8 µM
[18]
  GI50: 21 µM
  TGI: > 100 µM
[19]
  GI50: 7.07 µM
  TGI: 27.5 µM
[20]
  GI50: 2.47 µM
  TGI: 7.62 µM
[21]
  GI50: 3.09 µM
  TGI: 20.8 µM
[57]
  GI50: 3.56 µM
  TGI: 84.5 µM
[22]
  GI50: 5.16 µM
  TGI: > 100 µM
[23]
  GI50: 3.29 µM
  TGI: 13.5 µM
[24]
  GI50: 2.37 µM
  TGI: 14 µM
[25]
  GI50: 17.7 µM
  TGI: > 100 µM
[26]
  GI50: 4.98 µM
  TGI: 29.7 µM
[27]
  GI50: 2.99 µM
  TGI: 31.2 µM
[28]
  GI50: 4.86 µM
  TGI: 48.2 µM
[29]
  GI50: 3.82 µM
  TGI: 92.3 µM
[30]
  GI50: 3.39 µM
  TGI: 13.1 µM
[31]
  GI50: 2.08 µM
  TGI: 15.8 µM
[32]
  GI50: 4.24 µM
  TGI: 23.2 µM
[33]
  GI50: 4.91 µM
  TGI: 48.1 µM
[34]
  GI50: 3.61 µM
  TGI: 23.3 µM
[35]
  GI50: 1.98 µM
  TGI: 5.05 µM
[37]
  GI50: 4.7 µM
  TGI: 22.2 µM
[38]
  GI50: 9.07 µM
  TGI: 31.1 µM
[39]
  GI50: 4.95 µM
  TGI: 31.3 µM
[40]
  GI50: 5.06 µM
  TGI: 23 µM
[41]
  GI50: 3.99 µM
  TGI: 16.3 µM
[42]
  GI50: 7.14 µM
  TGI: 37.1 µM
[43]
  GI50: 1.81 µM
  TGI: 18.7 µM
[44]
  GI50: 1.72 µM
  TGI: 5.1 µM
[45]
  GI50: 3.12 µM
  TGI: 11.7 µM
[46]
  GI50: 4.15 µM
  TGI: 49.2 µM
[47]
  GI50: 0.649 µM
  TGI: 2.21 µM
[48]
  GI50: 2.76 µM
  TGI: 11 µM
[58]
  GI50: 2.59 µM
  TGI: 11.1 µM
[49]
  GI50: 2.5 µM
  TGI: 13.3 µM
[50]
  GI50: 2.8 µM
  TGI: 11.1 µM
[51]
  GI50: 2.53 µM
  TGI: 11.5 µM
[52]
  GI50: 2.12 µM
  TGI: > 100 µM
